What was measured:
[1] = system: N. brasiliensis or Helgomosomoides polygyrus; conditions: mice with free access to 100 mM succinate, infected with intestinal parasites, up to two weeks post-infection; anticipated
Description: For treatment of parasitic infection, mice are provided with free access to a drinking sprout containing 100 mM succinate (or other SucnR1 agonist) or plain water. Mice are then infected with intestinal parasites, such as N. brasiliensis or Helgomosomoides polygyrus. Mice are examined for the presence of worm (worm burden) in the small intestine, caecum, as well as feces for up to two weeks post-infection.
Similarly, the feces is examined for the presence of parasitic eggs.

DSS-induced colitis = conditions: DSS-treated mice, 100 mM succinate in drinking water vs plain water; anticipated
Description: Mice are treated with DSS to induce intestinal damage. Mice are then provided with a drinking sprout containing 100 mM succinate or plain water. Gut tissue is collected and evaluated for the clinical and histological changes.

Compound: O=C(O)CCC(=O)O [succinate]
- expelling of helminths (worm burden) [1]: expedited expelling of helminths from the body
- clinical outcome (clinical and histological changes of gut tissue) (DSS-induced colitis): better clinical outcome

Reference: patent US12226380B2, “Method of regulating immunity in the intestines” (Monell Chemical Senses Center, priority 2016, dated 2025)
